# From ChEMBL document CHEMBL1146164, “Synthesis and evaluation of aminomethyl dihydrocinnamates as a new class of PPAR ligands” (Bioorg Med Chem Lett, 2006)
# How the values were obtained:
# [1] = biological target: T1, Peroxisome proliferator-activated receptor gamma (Homo sapiens, UniProt P37231)
# T1 sequence (P37231 whole entry): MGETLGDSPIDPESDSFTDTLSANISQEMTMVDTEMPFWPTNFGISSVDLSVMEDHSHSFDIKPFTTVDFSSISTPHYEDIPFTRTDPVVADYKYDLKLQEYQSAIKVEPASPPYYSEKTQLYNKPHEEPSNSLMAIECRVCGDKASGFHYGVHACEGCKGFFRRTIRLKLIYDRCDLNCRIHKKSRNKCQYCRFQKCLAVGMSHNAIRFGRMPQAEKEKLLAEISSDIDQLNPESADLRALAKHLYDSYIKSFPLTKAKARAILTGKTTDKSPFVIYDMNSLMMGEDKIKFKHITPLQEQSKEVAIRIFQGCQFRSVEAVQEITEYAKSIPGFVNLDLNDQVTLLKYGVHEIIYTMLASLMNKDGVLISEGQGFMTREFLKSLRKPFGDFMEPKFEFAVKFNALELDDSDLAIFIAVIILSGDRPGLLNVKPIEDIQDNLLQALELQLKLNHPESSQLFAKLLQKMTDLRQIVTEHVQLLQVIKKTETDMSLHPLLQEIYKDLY
# Description: Activity at human PPARgamma in CV1 cells
# [2] = biological target: T2, Peroxisome proliferator-activated receptor alpha (Homo sapiens) (UniProt Q07869); assay: Activity at human PPARalpha in CV1 cells by CTF assay relative to 2-(4-{2-[3-(2,4-difluoro-phenyl)-1-heptyl-ureido]-ethyl}-phenoxy)-2-methyl-butyric acid; assay type: cell-based; settings: CV-1
# T2 sequence (whole entry): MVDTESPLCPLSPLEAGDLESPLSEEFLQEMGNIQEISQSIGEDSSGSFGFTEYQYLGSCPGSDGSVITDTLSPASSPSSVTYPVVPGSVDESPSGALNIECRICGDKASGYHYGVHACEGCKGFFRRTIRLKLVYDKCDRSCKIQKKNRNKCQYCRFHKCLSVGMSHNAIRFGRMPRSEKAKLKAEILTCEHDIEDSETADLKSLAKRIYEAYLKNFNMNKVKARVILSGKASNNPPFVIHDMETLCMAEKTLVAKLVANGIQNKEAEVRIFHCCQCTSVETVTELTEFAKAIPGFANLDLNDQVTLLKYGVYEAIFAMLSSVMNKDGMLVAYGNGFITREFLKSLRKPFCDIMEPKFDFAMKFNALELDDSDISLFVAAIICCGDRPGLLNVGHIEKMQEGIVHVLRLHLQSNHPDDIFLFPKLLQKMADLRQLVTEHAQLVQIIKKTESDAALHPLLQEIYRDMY
# [3] = biological target: T3, Peroxisome proliferator-activated receptor alpha (Homo sapiens, UniProt Q07869); assay: Activity at human PPARalpha in CV1 cells; assay type: cell-based, CV-1
# T3 sequence (Q07869 whole entry): T2 sequence (whole entry)
# [4] = biological target: T3, Peroxisome proliferator-activated receptor alpha; assay: Displacement of [3H]2-(4-{2-[3-(2,4-difluoro-phenyl)-1-heptyl-ureido]-ethyl}-phenoxy)-2-methyl-butyric acid from hPPARalpha
# [5] = biological target: T1, Peroxisome proliferator-activated receptor gamma; remark: listed apart in the source
# Description: Displacement of [3H]2-methyl-2-(4-{3-propyl-(5-pyridin-2yl-thiophene-2-sulfonyl)-amino]-pro-pyl}-phenoxy)-propionic acid from human PPARgamma
# Rattus norvegicus = assay: Reduction of plasma glucose level in orally dosed Zucker diabetic fatty rat; assay type: functional; settings: ZDF, po
# Mus musculus = assay: Reduction of plasma glucose level in db/db mouse at 30 mg/kg, po relative to rosiglitazone; assay type: functional; parameters: scale not given: the % may be the effect or the level left
Structure (SMILES),EC50 [1] [nM],Efficacy [2] [%],EC50 [3] [nM],IC50 [4] [nM],IC50 [5] [nM],ED50 (Rattus norvegicus) [mg/kg],Activity (Mus musculus) [%]
Cc1oc(-c2ccccc2)nc1CCOc1ccc(CCC(=O)O)c(CNC(=O)CCc2ccccc2)c1,1020,32,2800,4960,161,,
CC(C)(Oc1ccc(C(=O)c2ccc(Cl)cc2)cc1)C(=O)O [FENOFIBRIC ACID],,35,2650,> 10000,,,
Cc1oc(-c2ccc(-c3ccccc3)cc2)nc1CCOc1ccc(CCC(=O)O)c(CNC(=O)Oc2cnccn2)c1,2,68,198,449,26,0.03,87
Cc1oc(-c2ccccc2)nc1CCOc1ccc(CCC(=O)O)c(CNC(=O)NCc2ccccc2)c1,2680,5,,> 10000,706,,
Cc1oc(-c2ccccc2)nc1CCOc1ccc(CCC(=O)O)c(CNC(=O)OCc2ccccc2)c1,115,54,515,441,91,,
Cc1oc(-c2ccc(-c3ccccc3)cc2)nc1CCOc1ccc(CCC(=O)O)c(CNC(=O)OC(C)C)c1,19,,845,3490,47,0.02,56
Cc1oc(-c2ccc(Oc3ccccc3)cc2)nc1CCOc1ccc(CCC(=O)O)c(CNC(=O)OC(C)C)c1,2,46,78,516,50,0.05,
Cc1oc(-c2ccccc2)nc1CCOc1ccc(CCC(=O)O)c(CNC(=O)Oc2cnccn2)c1,7,60,35,53,17,,
Cc1sc(N2CCOCC2)nc1CCOc1ccc(CCC(=O)O)c(CNC(=O)OC(C)C)c1,28,37,986,1490,22,0.12,58
Cc1oc(-c2ccc(-c3ncccn3)cc2)nc1CCOc1ccc(CCC(=O)O)c(CNC(=O)OC(C)C)c1,4,37,900,9940,50,0.04,52
Cc1oc(-c2ccccc2)nc1CCOc1ccc(CCC(=O)O)c(CNS(=O)(=O)Cc2ccccc2)c1,527,33,2940,3390,72,,
Cc1oc(-c2ccccc2)nc1CCOc1ccc(CCC(=O)O)c(CNC(=O)OC(C)C)c1,8,51,70,146,26,,58
